Test results taken from patent US20230063462A1, “SULFONIMIDAMIDE COMPOUNDS AND COMPOSITIONS FOR TREATING CONDITIONS ASSOCIATED WITH NLRP ACTIVITY” (NOVARTIS AG, priority 2019, published 2023).
Where two headings read alike, the source gives them in different places.

Test system: THP-1 cells
Assay: hTHP-1 assay: gramicidin-stimulated IL-1β detection in PMA-treated THP-1 cells
Type: cell-based, human
Procedure: The following protocol is suitable for testing the activity of the compounds disclosed herein.
1. Experimental procedure • 1.1 Cell Culture • 1) Culture THP-1 cells in the complete RPMI-1640 medium with 10% FBS at 37° C., 5% CO2. • 2) Passage the cells every 3 days by inoculating 3×10^5 cells per ml. • 1.2 Compound Preparation • Prepare the 3-fold serial dilution of the compounds with DMSO in a 384-well LDV Microplate using TECAN EVO system to generate the compound source plate with 10 concentrations. […] HC: 100 μM CRID3 (MCC950)+5 μM gramicidin LC: 5 μM Gramicidin. • 1.5 IL-1β Detection • 1) Homogenize the 5× diluent #5 with a vortex and add 1 volume of stock solution in 4 volumes of distilled water. • 2) Thaw 20× stock solution of anti-IL1β-Cryptate-antibody and anti-IL1β XL-antibody. Dilute these two antibodies to 1× with detection buffer #3. • 3) Pre-mix the two ready-to-use antibody solutions just prior to use. • 4) Dispense 4 ul of pre-mixed Anti-IL1β antibodies working solution into all wells. • 5) Seal the plate and incubate overnight at 4° C. • 6) Read the cell plate using EnVison and plot Readout vs. the test compound concentration to calculate the IC50.
2. Data Analysis: • 1. IC50 of compounds can be calculated using the following formulas • Formula for IC50
% inhibition=100−100×[HCave-Readout/(HCave−LCave)] • 2. Fit the normalized data in a dose-response manner using XLfit, and calculate the compound concentration.

[1] = Table B1, 2% fetal bovine serum, class symbol, read-out: hTHP-1 IC50
[2] = Table B1, 2% fetal bovine serum, numeric value, read-out: hTHP-1 IC50
[3] = Homo sapiens, THP-1, Table B1, 2% fetal bovine serum, class symbol, read-out: hTHP-1 IC50
[4] = Homo sapiens, THP-1, Table B1, 2% fetal bovine serum, numeric value, read-out: hTHP-1 IC50

Compound	IC50 [1]	IC50 [2]	also measured
NS(=O)(=NC(=O)Nc1c2c(nc(C(F)(F)F)c1C1CC1)CCC2)c1ccn(C2CC2)n1 (racemic) [Example 899, (S) or (RS)-1-cyclopropyl-N′-((3-cyclopropyl-2-(trifluoromethyl)-6,7-dihydro-5H-cyclopenta [b]pyridin-4-yl)carbamoyl)-1H-pyrazole-3-sulfonimidamide]			IC50 (Homo sapiens, THP-1, Table B2, 10% FBS, class symbol, read-out: hTHP-1 IC50 in 10% FBS): 5000 to 30000 nM; IC50 (Homo sapiens, THP-1, Table B2, 10% FBS, numeric value, read-out: hTHP-1 IC50 in 10% FBS): 9960 nM
CC(C)(O)c1csc(S(=O)(=NC(=O)Nc2c3c(cc4c2CCC4)CCC3)NC#N)c1 (single isomer, unassigned) [Example 2, (R) or (S)-N-cyano-N′-((1,2,3,5,6,7-hexahydro-s-indacen-4-yl)carbamoyl)-4-(2-hydroxypropan-2-yl)thiophene-2-sulfonimidamide]	8 to 40 nM	14.6 nM	
CC(C)(O)c1csc(S(=O)(=NC(=O)Nc2c3c(cc4c2CC4)CCC3)NC#N)c1 (single isomer, unassigned) [Example 6, (R) or (S)-N-cyano-4-(2-hydroxypropan-2-yl)-N′-((2,4,5,6-tetrahydro-1H-cyclobuta[f]inden-3-yl)carbamoyl)thiophene-2-sulfonimidamide]	40 to 200 nM	71.7 nM	
CC(C)(O)c1csc(S(=O)(=NC(=O)Nc2c3c(cc4c2CC4)CCC3)NC#N)c1 (single isomer, unassigned) [Example 7, (S) or (R)-N-cyano-4-(2-hydroxypropan-2-yl)-N′-((2,4,5,6-tetrahydro-1H-cyclobuta[f]inden-3-yl)carbamoyl)thiophene-2-sulfonimidamide]	< 8 nM	6.8 nM	
CC(C)(O)c1ccc(CS(=O)(=NC(=O)Nc2c3c(cc4c2CCC4)CCC3)NC#N)cc1 (single isomer, unassigned) [Example 9, (R) or (S)-N-cyano-N′-((1,2,3,5,6,7-hexahydro-s-indacen-4-yl)carbamoyl)-1-(4-(2-hydroxypropan-2-yl)phenyl)methanesulfonimidamide]	40 to 200 nM	104 nM	
Cc1oc(S(=O)(=NC(=O)Nc2c(C(C)C)cc(F)cc2C(C)C)NC#N)cc1C(C)(C)O (single isomer, unassigned) [Example 10, (S) or (R)-N-cyano-N′-((4-fluoro-2,6-diisopropylphenyl)carbamoyl)-4-(2-hydroxypropan-2-yl)-5-methylfuran-2-sulfonimidamide]	1000 to 5000 nM	2440 nM	
CC(C)(O)c1nc(CO)c(S(=O)(=NC(=O)Nc2c3c(nc4c2CCC4(C)C)CCC3)NC#N)s1 (single isomer, unassigned) [Example 13, (R) or (S)-N-cyano-N′-((3,3-dimethyl-1,2,3,5,6,7-hexahydrodicyclopenta[b,e]pyridin-8-yl)carbamoyl)-4-(hydroxymethyl)-2-(2-hydroxypropan-2-yl)thiazole-5-sulfonimidamide]			IC50 [3]: 40 to 200 nM; IC50 [4]: 112 nM
CN(C)Cc1ccc(S(=O)(=NC(=O)Nc2c3c(cc4c2CCC4)CCC3)NC#N)c(F)c1 (single isomer, unassigned) [Example 14, (S) or (R)-N-cyano-4-((dimethylamino)methyl)-2-fluoro-N′-((1,2,3,5,6,7-hexahydro-s-indacen-4-yl)carbamoyl)benzenesulfonimidamide]	40 to 200 nM	973 nM	
CC1CCc2c1nc1c(c2NC(=O)N=S(=O)(NC#N)c2cc(C(C)(C)O)cs2)CCC1 (single isomer, unassigned) [Example 17, (R,S) or (R,R)-N-cyano-4-(2-hydroxypropan-2-yl)-N′-(((R)-3-methyl-1,2,3,5,6,7-hexahydrodicyclopenta[b,e]pyridin-8-yl)carbamoyl)thiophene-2-sulfonimidamide]	1000 to 5000 nM	1240 nM	
CC1CCc2c1nc1c(c2NC(=O)N=S(=O)(NC#N)c2cc(C(C)(C)O)cs2)CCC1 (single isomer, unassigned) [Example 18, (S,S) or (S,R)-N-cyano-4-(2-hydroxypropan-2-yl)-N′-(((S)-3-methyl-1,2,3,5,6,7-hexahydrodicyclopenta[b,e]pyridin-8-yl)carbamoyl)thiophene-2-sulfonimidamide]	40 to 200 nM	80.3 nM	
CC1CCc2c1nc1c(c2NC(=O)N=S(=O)(NC#N)c2cc(C(C)(C)O)cs2)CCC1 (single isomer, unassigned) [Example 19, (S,R) or (S,S)-N-cyano-4-(2-hydroxypropan-2-yl)-N′-(((R)-3-methyl-1,2,3,5,6,7-hexahydrodicyclopenta[b,e]pyridin-8-yl)carbamoyl)thiophene-2-sulfonimidamide]	200 to 1000 nM	705 nM	
CC(C)c1cc(C#N)c(F)c(C(C)C)c1NC(=O)N=S(=O)(NC#N)c1cnc(C(C)(C)O)s1 (single isomer, unassigned) [Example 21, (R) or (S)-N-cyano-N′-((4-cyano-3-fluoro-2,6-diisopropylphenyl)carbamoyl)-2-(2-hydroxypropan-2-yl)thiazole-5-sulfonimidamide]	40 to 200 nM	50.8 nM	
CC(C)c1cc(C#N)cc(C(C)C)c1NC(=O)N=S(=O)(NC#N)c1sc(C(C)(C)O)nc1CO (single isomer, unassigned) [Example 22, (R) or (S)-N-cyano-N′-((4-cyano-2,6-diisopropylphenyl)carbamoyl)-4-(hydroxymethyl)-2-(2-hydroxypropan-2-yl)thiazole-5-sulfonimidamide]			IC50 [3]: 40 to 200 nM; IC50 [4]: 79.2 nM

Further lines, with some results ahead:

IC50 [1]	IC50 [2]	Compound	also measured
40 to 200 nM	53.5 nM	CC(C)(O)c1csc(S(=O)(=NC(=O)Nc2c3c(cc4c2CCC4)CCC3)NC#N)c1 (single isomer, unassigned) [Example 1, (S) or (R)-N-cyano-N′-(1,2,3,5,6,7-hexahydro-s-indacen-4-ylcarbamoyl)-4-(2-hydroxypropan-2-yl)thiophene-2-sulfonimidamide]	
40 to 200 nM	59.7 nM	CC(C)(O)c1ncc(S(=O)(=NC(=O)Nc2c3c(nc4c2CCC4(C)C)CCC3)NC#N)s1 (single isomer, unassigned) [Example 4, (S) or (R)-N-cyano-N′-((3,3-dimethyl-1,2,3,5,6,7-hexahydrodicyclopenta[b,e]pyridin-8-yl)carbamoyl)-2-(2-hydroxypropan-2-yl)thiazole-5-sulfonimidamide]	
200 to 1000 nM	236 nM	CC(C)(O)c1ncc(S(=O)(=NC(=O)Nc2c3c(nc4c2CCC4(C)C)CCC3)NC#N)s1 (single isomer, unassigned) [Example 5, (R) or (S)-N-cyano-N′-((3,3-dimethyl-1,2,3,5,6,7-hexahydrodicyclopenta[b,e]pyridin-8-yl)carbamoyl)-2-(2-hydroxypropan-2-yl)thiazole-5-sulfonimidamide]	
	42.2 nM	CC(C)(O)c1ccc(CS(=O)(=NC(=O)Nc2c3c(cc4c2CCC4)CCC3)NC#N)cc1 (single isomer, unassigned) [Example 8, (S) or (R)-N-cyano-N′-((1,2,3,5,6,7-hexahydro-s-indacen-4-yl)carbamoyl)-1-(4-(2-hydroxypropan-2-yl)phenyl)methanesulfonimidamide]	IC50 [3]: 40 to 200 nM
40 to 200 nM	90.6 nM	Cc1oc(S(=O)(=NC(=O)Nc2c(C(C)C)cc(F)cc2C(C)C)NC#N)cc1C(C)(C)O (single isomer, unassigned) [Example 11, (R) or (S)-N-cyano-N′-((4-fluoro-2,6-diisopropylphenyl)carbamoyl)-4-(2-hydroxypropan-2-yl)-5-methylfuran-2-sulfonimidamide]	
200 to 1000 nM	209 nM	CN(C)Cc1ccc(S(=O)(=NC(=O)Nc2c3c(cc4c2CCC4)CCC3)NC#N)c(F)c1 (single isomer, unassigned) [Example 15, (R) or (S)-N-cyano-4-((dimethylamino)methyl)-2-fluoro-N′-((1,2,3,5,6,7-hexahydro-s-indacen-4-yl)carbamoyl)benzenesulfonimidamide]	
200 to 1000 nM	204 nM	CC1CCc2c1nc1c(c2NC(=O)N=S(=O)(NC#N)c2cc(C(C)(C)O)cs2)CCC1 (single isomer, unassigned) [Example 16, (R,R) or (R,S)-N-cyano-4-(2-hydroxypropan-2-yl)-N′-(((S)-3-methyl-1,2,3,5,6,7-hexahydrodicyclopenta[b,e]pyridin-8-yl)carbamoyl)thiophene-2-sulfonimidamide]	
1000 to 5000 nM	2750 nM	CC(C)c1cc(C#N)c(F)c(C(C)C)c1NC(=O)N=S(=O)(NC#N)c1cnc(C(C)(C)O)s1 (single isomer, unassigned) [Example 20, (S) or (R)-N-cyano-N′-((4-cyano-3-fluoro-2,6-diisopropylphenyl)carbamoyl)-2-(2-hydroxypropan-2-yl)thiazole-5-sulfonimidamide]	
